Laboratory results: patent EP4238971A1, “SUBSTITUTED ISOXAZOLINE DERIVATIVES” (BASF SE, priority 2022, dated 2023)

Columns and labels:
Type in all cases: in vivo
Anthonomus grandis = experiment: Boll weevil (Anthonomus grandis) control, insect diet in 96-well microtiter plates
Procedure: (§1) If not otherwise specified, the test solutions were prepared as follows: The active compound was dissolved at the desired concentration in a mixture of 1:1 (vol:vol) distilled water:acetone. The test solution was prepared at the day of use.
(§2) Test solutions were prepared in general at a concentration of 2500ppm (wt/vol).
B.1. Boll weevil (Anthonomus grandis)
For evaluating control of boll weevil, the test unit consisted of 96-well-microtiter plates containing an insect diet and 5-10 A. grandis eggs.
The compounds were formulated using a solution containing 75% v/v water and 25% v/v DMSO. Different concentrations of formulated compounds were sprayed onto the insect diet at 5µl, using a custom-built micro atomizer, at two replications.
After application, microtiter plates were incubated at about 25 ± 1°C and about 75 ± 5 % relative humidity for 5 days. Egg and larval mortality were then visually assessed.

Plutella xylostella = experiment: Diamond back moth (Plutella xylostella), cabbage leaf disc dip test
Procedure: B.5. Diamond back moth (Plutella xylostella)
The active compound was dissolved at the desired concentration in a mixture of 1:1 (vol:vol) distilled water: acetone. Surfactant (Kinetic) was added at a rate of 0.01% (vol/vol). The test solution was prepared at the day of use. Cabbage leaf discs (60mm in diameter) were dipped in test solution and air-dried. Treated leaves were placed in petri dishes lined with moistened filter paper and inoculated with ten 3rd instar larvae. Mortality was recorded 72 hours after treatment. Feeding damages were also recorded using a scale of 0-100%.

Bemisia argentifolii = experiment: Silverleaf whitefly (Bemisia argentifolii) adults, sprayed cotton plants
Procedure: B.8. Silverleaf whitefly (Bemisia argentifolii) (adults)
The active compounds were formulated by a Tecan liquid handler in 100% cyclohexanone as a 10,000-ppm solution supplied in tubes. The 10,000-ppm solution was serially diluted in 100% cyclohexanone to make interim solutions. These served as stock solutions for which final dilutions were made by the Tecan in 50% acetone:50% water (v/v) into 5 or 10ml glass vials. A nonionic surfactant (Kinetic®) was included in the solution at a volume of 0.01% (v/v). The vials were then inserted into an automated electrostatic sprayer equipped with an atomizing nozzle for application to plants/insects. Cotton plants at the cotyledon stage (one plant per pot) were sprayed by an automated electrostatic plant sprayer equipped with an atomizing spray nozzle. The plants were dried in the sprayer fume hood and then removed from the sprayer. Each pot was placed into a plastic cup and about 10 to 12 whitefly adults (approximately 3-5 days old) were introduced. The insects were collected using an aspirator and a nontoxic Tygon® tubing connected to a barrier pipette tip. The tip, containing the collected insects, was then gently inserted into the soil containing the treated plant, allowing insects to crawl out of the tip to reach the foliage for feeding. Cups were covered with a reusable screened lid. Test plants were maintained in a growth room at about 25°C and about 20-40% relative humidity for 3 days, avoiding direct exposure to fluorescent light (14:10 light:dark photoperiod) to prevent trapping of heat inside the cup. Mortality was assessed 3 days after treatment, compared to untreated control plants.

Myzus persicae = experiment: Green peach aphid (Myzus persicae), mixed life stages, systemic test via artificial diet under membrane
Procedure: as §1, §2
B.2. Green peach aphid (Myzus persicae) (mixed life stages)
For evaluating control of Green Peach Aphid through systemic means the test unit consisted of 96-well-microtiter plates containing liquid artificial diet under an artificial membrane. The compounds were formulated using a solution containing 75% v/v water and 25% v/v DMSO. Different concentrations of formulated compounds were pipetted into the aphid diet, using a custom-built pipette, at two replications. After application, 5 - 8 adult aphids were placed on the artificial membrane inside the microtiter plate wells. The aphids were then allowed to suck on the treated aphid diet and incubated at about 23 ± 1°C and about 50 ± 5 % relative humidity for 3 days. Aphid mortality and fecundity was then visually assessed.

Dichromothrips corbetti = experiment: Orchid thrips (Dichromothrips corbetti), floral-immersion technique
Procedure: B.6. Orchid thrips (Dichromothrips corbetti)
Dichromothrips corbetti adults used for bioassay were obtained from a colony maintained continuously under laboratory conditions. For testing purposes, the test compound was diluted in a 1:1 mixture of acetone:water (vol:vol), plus Kinetic at a rate of 0.01% v/v.
Thrips potency of each compound was evaluated by using a floral-immersion technique. Each orchid petal was dipped into treatment solution and allowed to dry in Petri dishes. Treated petals were placed into individual re-sealable plastic along with about 20 adult thrips. All test arenas were held under dark condition and a temperature of about 28°C for duration of the assay. The percent mortality was recorded 72 hours after treatment.

Heliothis virescens = experiment: Tobacco budworm (Heliothis virescens) control, insect diet in 96-well microtiter plates
Procedure: as §1, §2
B.3. Tobacco budworm (Heliothis virescens)
For evaluating control of Tobacco Budworm, the test unit consisted of 96-well-microtiter plates containing an insect diet and 15-25 H. virescens eggs. The compounds were formulated using a solution containing 75% v/v water and 25% v/v DMSO. Different concentrations of formulated compounds were sprayed onto the insect diet at 10µl, using a custom-built micro atomizer, at two replications. After application, microtiter plates were incubated at about 28 ± 1°C and about 80 ± 5 % relative humidity for 5 days. Egg and larval mortality was then visually assessed.

Aedes aegypti = experiment: whole plant or invertebrate; conditions: larval mortality visually assessed after 2 days
Procedure: as §1, §2
B.4. Yellow fever mosquito (Aedes aegypti)
For evaluating control of Yellow Fever Mosquito, the test unit consisted of 96-well-microtiter plates containing 200µl of tap water per well and 5-15 freshly hatched A. aegypti larvae. The active compounds were formulated using a solution containing 75% (v/v) water and 25% (v/v) DMSO. Different concentrations of formulated compounds or mixtures were sprayed onto the insect diet at 2.5µl, using a custom-built micro atomizer, at two replications.
After application, microtiter plates were incubated at 28 ± 1°C, 80 ± 5 % RH for 2 days. Larval mortality was then visually assessed.

Spodoptera eridania = experiment: Southern armyworm (Spodoptera eridania), 2nd instar larvae, sprayed lima bean plants
Procedure: B.7. Southern armyworm (Spodoptera eridania), 2nd instar larvae
The active compounds were formulated by a Tecan liquid handler in 100% cyclohexanone as a 10'000 ppm solution supplied in tubes. The 10'000 ppm solution was serially diluted in 100% cyclohexanone to make interim solutions. These served as stock solutions for which final dilutions were made by the Tecan in 50% acetone:50% water (v/v) into 10 or 20ml glass vials. A nonionic surfactant (Kinetic®) was included in the solution at a volume of 0.01% (v/v). The vials were then inserted into an automated electrostatic sprayer equipped with an atomizing nozzle for application to plants/insects. Lima bean plants (variety Sieva) were grown 2 plants to a pot and selected for treatment at the 1st true leaf stage. Test solutions were sprayed onto the foliage by an automated electrostatic plant sprayer equipped with an atomizing spray nozzle. The plants were dried in the sprayer fume hood and then removed from the sprayer. Each pot was placed into perforated plastic bags with a zip closure. Ten to 11 armyworm larvae were placed into the bag and the bags zipped closed. Test plants were maintained in a growth room at about 25°C and about 20-40% relative humidity for 4 days, avoiding direct exposure to fluorescent light (14:10 light:dark photo-period) to prevent trapping of heat inside the bags. Mortality and reduced feeding were assessed 4 days after treatment, compared to untreated control plants.

[1] = 2500ppm, egg and larval mortality visually assessed after 5 days

`COCN(C1=NOC(c2cc(Cl)c(F)c(Cl)c2)(C(F)(F)F)C1)c1ccc(Cl)c(-n2cncn2)c1` (stereo not shown) [I-21] was tested, and the “mortality in comparison with untreated controls” value (“mortality in comparison” for short) (Anthonomus grandis; [1]) was “at least 75%”, the “mortality in comparison” value (Plutella xylostella; 300ppm, 3rd instar larvae, mortality recorded 72 hours after treatment) was “at least 75%” and the “mortality in comparison” value (Bemisia argentifolii; 300 ppm, adults, assessed 3 days after treatment) was “at least 75%”. The “mortality in comparison” value (Myzus persicae; 2500ppm, aphid mortality visually assessed after 3 days) was “at least 75%”, the “mortality in comparison” value (Dichromothrips corbetti; 300ppm, adult thrips, mortality recorded 72 hours after treatment) was “at least 75%” and the “mortality in comparison” value (Heliothis virescens; [1]) was “at least 75%”. For the same compound, the “mortality in comparison” value (Aedes aegypti; 2500ppm) was “at least 75%” and the “mortality in comparison” value (Spodoptera eridania; 300ppm, 2nd instar larvae, assessed 4 days after treatment) was “at least 75%”.

In the case of `Fc1c(Cl)cc(C2(C(F)(F)F)CC(Nc3ccc(Cl)c(-n4cc(C(F)(F)F)cn4)c3)=NO2)cc1Cl` (stereo not shown) [I-14, N-[4-chloro-3-[4-(trifluoromethyl)pyrazol-1-yl]phenyl]-5-(3,5-dichloro-4-fluoro-phenyl)-5-(trifluoromethyl)-4H-isoxazol-3-amine], the mortality at 2500 ppm (Anthonomus grandis; Anthonomus grandis, 120 h, read-out: mortality in comparison with untreated controls) is reported as ≥ 75%, the mortality at 300 ppm (Plutella xylostella; Plutella xylostella, foliar, 72 h, read-out: mortality in comparison with untreated controls) is reported as ≥ 75% and the mortality at 300 ppm (Bemisia argentifolii; Bemisia argentifolii, 72 h, read-out: mortality in comparison with untreated controls) is reported as ≥ 75%. For the same compound, the mortality at 2500 ppm (Myzus persicae; Myzus persicae, 72 h, read-out: mortality in comparison with untreated controls) was ≥ 75%, the mortality at 300 ppm (Dichromothrips corbetti; Dichromothrips corbetti, 72 h, read-out: mortality in comparison with untreated controls) was ≥ 75% and the mortality at 2500 ppm (Heliothis virescens; Heliothis virescens, 120 h, read-out: mortality in comparison with untreated controls) was ≥ 75%. For the same compound, the mortality at 2500 ppm (Aedes aegypti; Aedes aegypti, 48 h, read-out: mortality in comparison with untreated controls) was ≥ 75% and the mortality at 300 ppm (Spodoptera eridania; Spodoptera eridania, 96 h, read-out: mortality in comparison with untreated controls) was ≥ 75%.
